US9034793B2, “Use of ribose to enhance plant growth” (Bioenergy, Inc., priority 2002, dated 2015)

Key:
bean seeds = assay: Plant growth and yield from bean seeds, daylight or darkness (Example 2); format: in vivo
Experimental: Three different treatments were explored on bean seeds to determine the effects of ribose (at two different doses) on plant growth and proliferation. [The three treatments include control (plain water), a 0.1332 M solution of ribose (5 g D-ribose dissolved in 250 ml water), and a 0.0666 M solution of ribose (5 g D-ribose dissolved in 500 ml water)]. The plants were kept under two different conditions, normal daylight and darkness. A total of six plants will be tested, with the conditions that each plant were tested at listed below. Treatments: [table] Each seed was planted under identical conditions (soil and pot size) and all at the same time. The environmental conditions (such as temperature and humidity), except for lighting, were kept constant for all the plants. Once potted, each seed received one to two tablespoons of treatment liquid (as mentioned above). A daily record was kept of the activity of each plant. Watering was done on every other day (or sooner if the soil was deemed too dry by the researcher), each again receiving one tablespoon of treatment liquid. Assessment of the effects of ribose fertilization was determined by measuring the time to the first appearance of a plant from the soil, the rate of growth, and leaf size. Table 3 represents the accumulated plant growth data from Example 2 and FIGS. 3 and 4 are graphic presentations of plant growth during light and dark conditions.

[1] = test system: plants grown from seed (5 seeds per plot); assay: Plant feeding with ribose for growth (Table 1); format: in vivo, Hosta (H. plantaginea grandiflora); conditions: for Unsprouted: of 5 seeds per plot
Excerpt: Hosta (H. plantaginea grandiflora) plants were transplanted. The protocol was designed such that half of the plants were supplied with water alone and half of the plants received a ribose based solution, in which powdered D-ribose was mixed in water. All plants were transplanted at the same level in the soil and in like soil. All plants were watered at the same times of day, mid-morning and at dusk. Each plant received the same amount of water/watering (½ liter water at each watering). Results of plant growth data following transplantation are graphically depicted in FIGS. 1 and 2. [table]

## O=C[C@H](O)[C@H](O)[C@H](O)CO [5/250, D-ribose]
Bean seeds; Dark, Day 0 (17-Sep)
  Amount of Growth Between Measurements: 0
  Plant growth-height: 0
  Rate of Growth Between Measurements: 0
Bean seeds; Dark, Day 3 (20-Sep)
  Amount of Growth Between Measurements: 0
  Plant growth-height: 0
  Rate of Growth Between Measurements: 0
Bean seeds; Dark, Day 5 (22-Sep)
  Amount of Growth Between Measurements: 0
  Plant growth-height: 0
  Rate of Growth Between Measurements: 0
  Rate of Growth Overall Thru Date: 0
Bean seeds; Dark, Day 7 (24-Sep)
  Amount of Growth Between Measurements: 4.4
  Plant growth-height: 4.4
  Rate of Growth Between Measurements: 2.20
  Rate of Growth Overall Thru Date: 0.63
Bean seeds; Dark, Day 8 (25-Sep)
  Amount of Growth Between Measurements: 4.1
  Plant growth-height: 8.5
  Rate of Growth Between Measurements: 4.10
  Rate of Growth Overall Thru Date: 1.06
Bean seeds; Dark, Day 9 (26-Sep)
  Amount of Growth Between Measurements: 4.7
  Plant growth-height: 13.2
  Rate of Growth Between Measurements: 4.70
  Rate of Growth Overall Thru Date: 1.47
Bean seeds; Dark, Day 10 (27-Sep)
  Amount of Growth Between Measurements: 2.1
  Plant growth-height: 15.3
  Rate of Growth Between Measurements: 2.10
  Rate of Growth Overall Thru Date: 1.53
Bean seeds; Dark, Day 11 (28-Sep)
  Amount of Growth Between Measurements: 2.3
  Plant growth-height: 17.6
  Rate of Growth Between Measurements: 2.30
  Rate of Growth Overall Thru Date: 1.60
Bean seeds; Dark, Day 12 (29-Sep)
  Amount of Growth Between Measurements: 2
  Plant growth-height: 19.6
  Rate of Growth Between Measurements: 2.00
  Rate of Growth Overall Thru Date: 1.63
Bean seeds; Dark, Day 13 (30-Sep)
  Amount of Growth Between Measurements: 1.5
  Plant growth-height: 21.1
  Rate of Growth Between Measurements: 1.50
  Rate of Growth Overall Thru Date: 1.62
Bean seeds; Dark, Day 16 (3-Oct)
  Amount of Growth Between Measurements: 3.6
  Plant growth-height: 24.7
  Rate of Growth Between Measurements: 1.20
  Rate of Growth Overall Thru Date: 1.54
Bean seeds; Light, Day 0 (17-Sep)
  Amount of Growth Between Measurements: 0
  Plant growth-height: 0
  Rate of Growth Between Measurements: 0
Bean seeds; Light, Day 3 (20-Sep)
  Amount of Growth Between Measurements: 0
  Plant growth-height: 0
  Rate of Growth Between Measurements: 0
Bean seeds; Light, Day 5 (22-Sep)
  Amount of Growth Between Measurements: 1.1
  Plant growth-height: 1.1
  Rate of Growth Between Measurements: 0.55
  Rate of Growth Overall Thru Date: 0.22
Bean seeds; Light, Day 7 (24-Sep)
  Amount of Growth Between Measurements: 4.4
  Plant growth-height: 5.5
  Rate of Growth Between Measurements: 2.20
  Rate of Growth Overall Thru Date: 0.79
Bean seeds; Light, Day 8 (25-Sep)
  Amount of Growth Between Measurements: 9.5
  Plant growth-height: 15
  Rate of Growth Between Measurements: 9.50
  Rate of Growth Overall Thru Date: 1.88
Bean seeds; Light, Day 9 (26-Sep)
  Amount of Growth Between Measurements: 4.1
  Plant growth-height: 19.1
  Rate of Growth Between Measurements: 4.10
  Rate of Growth Overall Thru Date: 2.12
Bean seeds; Light, Day 10 (27-Sep)
  Amount of Growth Between Measurements: 4
  Plant growth-height: 23.1
  Rate of Growth Between Measurements: 4.00
  Rate of Growth Overall Thru Date: 2.31
Bean seeds; Light, Day 11 (28-Sep)
  Amount of Growth Between Measurements: 2.6
  Plant growth-height: 25.7
  Rate of Growth Between Measurements: 2.60
  Rate of Growth Overall Thru Date: 2.34
Bean seeds; Light, Day 12 (29-Sep)
  Amount of Growth Between Measurements: 0.7
  Plant growth-height: 26.4
  Rate of Growth Between Measurements: 0.70
  Rate of Growth Overall Thru Date: 2.20
Bean seeds; Light, Day 13 (30-Sep)
  Amount of Growth Between Measurements: 0.2
  Plant growth-height: 26.6
  Rate of Growth Between Measurements: 0.20
  Rate of Growth Overall Thru Date: 2.05
Bean seeds; Light, Day 16 (3-Oct)
  Amount of Growth Between Measurements: 1.7
  Plant growth-height: 28.3
  Rate of Growth Between Measurements: 0.57
  Rate of Growth Overall Thru Date: 1.77
Bean seeds; Light, Day 19 (6-Oct)
  Amount of Growth Between Measurements: −0.7
  Plant growth-height: 27.6
  Rate of Growth Between Measurements: −0.23
  Rate of Growth Overall Thru Date: 1.45

## O=C[C@H](O)[C@H](O)[C@H](O)CO [5/500, D-ribose]
Bean seeds; Dark, Day 0 (17-Sep)
  Amount of Growth Between Measurements: 0
  Plant growth-height: 0
  Rate of Growth Between Measurements: 0
Bean seeds; Dark, Day 3 (20-Sep)
  Amount of Growth Between Measurements: 0
  Plant growth-height: 0
  Rate of Growth Between Measurements: 0
Bean seeds; Dark, Day 5 (22-Sep)
  Amount of Growth Between Measurements: 0
  Plant growth-height: 0
  Rate of Growth Between Measurements: 0
  Rate of Growth Overall Thru Date: 0
Bean seeds; Dark, Day 7 (24-Sep)
  Amount of Growth Between Measurements: 5.2
  Plant growth-height: 5.2
  Rate of Growth Between Measurements: 2.60
  Rate of Growth Overall Thru Date: 0.74
Bean seeds; Dark, Day 8 (25-Sep)
  Amount of Growth Between Measurements: 5.9
  Plant growth-height: 11.1
  Rate of Growth Between Measurements: 5.90
  Rate of Growth Overall Thru Date: 1.39
Bean seeds; Dark, Day 9 (26-Sep)
  Amount of Growth Between Measurements: 9.7
  Plant growth-height: 20.8
  Rate of Growth Between Measurements: 9.70
  Rate of Growth Overall Thru Date: 2.31
Bean seeds; Dark, Day 10 (27-Sep)
  Amount of Growth Between Measurements: 9.8
  Plant growth-height: 30.6
  Rate of Growth Between Measurements: 9.80
  Rate of Growth Overall Thru Date: 3.06
Bean seeds; Dark, Day 11 (28-Sep)
  Amount of Growth Between Measurements: 5.2
  Plant growth-height: 35.8
  Rate of Growth Between Measurements: 5.20
  Rate of Growth Overall Thru Date: 3.25
Bean seeds; Dark, Day 12 (29-Sep)
  Amount of Growth Between Measurements: 3.5
  Plant growth-height: 39.3
  Rate of Growth Between Measurements: 3.50
  Rate of Growth Overall Thru Date: 3.28
Bean seeds; Dark, Day 13 (30-Sep)
  Amount of Growth Between Measurements: 5.5
  Plant growth-height: 44.8
  Rate of Growth Between Measurements: 5.50
  Rate of Growth Overall Thru Date: 3.45
Bean seeds; Dark, Day 16 (3-Oct)
  Amount of Growth Between Measurements: 2
  Plant growth-height: 46.8
  Rate of Growth Between Measurements: 0.67
  Rate of Growth Overall Thru Date: 2.93
Bean seeds; Dark, Day 19 (6-Oct)
  Amount of Growth Between Measurements: 0
  Plant growth-height: 46.8
  Rate of Growth Between Measurements: 0.00
  Rate of Growth Overall Thru Date: 2.46
Bean seeds; Light, Day 0 (17-Sep)
  Amount of Growth Between Measurements: 0
  Plant growth-height: 0
  Rate of Growth Between Measurements: 0
Bean seeds; Light, Day 3 (20-Sep)
  Amount of Growth Between Measurements: 0
  Plant growth-height: 0
  Rate of Growth Between Measurements: 0
Bean seeds; Light, Day 5 (22-Sep)
  Amount of Growth Between Measurements: 0
  Plant growth-height: 0
  Rate of Growth Between Measurements: 0
  Rate of Growth Overall Thru Date: 0
Bean seeds; Light, Day 7 (24-Sep)
  Amount of Growth Between Measurements: 0
  Plant growth-height: 0
  Rate of Growth Between Measurements: 0
  Rate of Growth Overall Thru Date: 0.00
Bean seeds; Light, Day 8 (25-Sep)
  Amount of Growth Between Measurements: 0.5
  Plant growth-height: 0.5
  Rate of Growth Between Measurements: 0.50
  Rate of Growth Overall Thru Date: 0.06
Bean seeds; Light, Day 9 (26-Sep)
  Amount of Growth Between Measurements: 1.6
  Plant growth-height: 2.1
  Rate of Growth Between Measurements: 1.60
  Rate of Growth Overall Thru Date: 0.23
Bean seeds; Light, Day 10 (27-Sep)
  Amount of Growth Between Measurements: 8.4
  Plant growth-height: 10.5
  Rate of Growth Between Measurements: 8.40
  Rate of Growth Overall Thru Date: 1.05
Bean seeds; Light, Day 11 (28-Sep)
  Amount of Growth Between Measurements: 6.1
  Plant growth-height: 16.6
  Rate of Growth Between Measurements: 6.10
  Rate of Growth Overall Thru Date: 1.51
Bean seeds; Light, Day 12 (29-Sep)
  Amount of Growth Between Measurements: 5.9
  Plant growth-height: 22.5
  Rate of Growth Between Measurements: 5.90
  Rate of Growth Overall Thru Date: 1.88
Bean seeds; Light, Day 13 (30-Sep)
  Amount of Growth Between Measurements: 3.8
  Plant growth-height: 26.3
  Rate of Growth Between Measurements: 3.80
  Rate of Growth Overall Thru Date: 2.02
Bean seeds; Light, Day 16 (3-Oct)
  Amount of Growth Between Measurements: 2.1
  Plant growth-height: 28.4
  Rate of Growth Between Measurements: 0.70
  Rate of Growth Overall Thru Date: 1.78
Bean seeds; Light, Day 19 (6-Oct)
  Amount of Growth Between Measurements: 0.6
  Plant growth-height: 29
  Rate of Growth Between Measurements: 0.20
  Rate of Growth Overall Thru Date: 1.53

## O=C[C@H](O)[C@H](O)[C@H](O)CO [R2, ribose]
[1]; 23 June, 5 seeds per plot
  Plant measures, Mean: 3.3 inches
[1]; 23 June
  Unsprouted: 1
[1]; Measured 8 July
  #Plants/blossom: 3
  Plant measures, Mean: 5.8 inches

## O=C[C@H](O)[C@H](O)[C@H](O)CO [R3, ribose]
[1]; 23 June, 5 seeds per plot
  Plant measures, Mean: 6.05 inches
[1]; 23 June
  Unsprouted: 0
[1]; Measured 8 July
  #Plants/blossom: 4
  Plant measures, Mean: 9.3 inches
